The text below walks through data of BindingDB's records for doi:10.1111/cbdd.12863 (Guangzhou Institutes of Biomedicine and Health, Chinese …, 2017).

Test [1] deals with T1, Discoidin domain-containing receptor 2 (Homo sapiens, UniProt Q16832).
T1 sequence (Q16832 whole entry): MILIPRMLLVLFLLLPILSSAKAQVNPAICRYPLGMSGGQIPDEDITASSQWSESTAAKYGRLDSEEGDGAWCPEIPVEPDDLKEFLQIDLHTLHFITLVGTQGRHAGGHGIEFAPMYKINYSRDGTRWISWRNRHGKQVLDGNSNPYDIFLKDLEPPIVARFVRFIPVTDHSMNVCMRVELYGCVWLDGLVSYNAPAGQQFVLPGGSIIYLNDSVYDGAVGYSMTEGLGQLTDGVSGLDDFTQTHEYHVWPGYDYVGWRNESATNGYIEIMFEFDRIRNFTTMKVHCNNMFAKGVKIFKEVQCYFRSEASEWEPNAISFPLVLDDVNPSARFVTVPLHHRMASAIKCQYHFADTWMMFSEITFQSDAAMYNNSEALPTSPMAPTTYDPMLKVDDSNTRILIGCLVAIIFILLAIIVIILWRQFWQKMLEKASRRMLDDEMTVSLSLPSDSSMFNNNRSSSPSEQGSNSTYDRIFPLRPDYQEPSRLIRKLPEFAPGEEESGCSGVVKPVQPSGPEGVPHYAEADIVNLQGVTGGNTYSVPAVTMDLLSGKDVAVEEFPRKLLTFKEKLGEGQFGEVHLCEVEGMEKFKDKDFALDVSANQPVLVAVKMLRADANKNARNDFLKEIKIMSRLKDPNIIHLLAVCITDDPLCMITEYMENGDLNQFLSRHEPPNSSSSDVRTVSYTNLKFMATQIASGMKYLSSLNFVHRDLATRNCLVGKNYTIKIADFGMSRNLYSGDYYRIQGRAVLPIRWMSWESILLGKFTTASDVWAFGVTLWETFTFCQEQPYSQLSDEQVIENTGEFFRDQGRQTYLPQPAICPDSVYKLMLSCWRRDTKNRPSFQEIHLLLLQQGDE
Put plainly: LanthaScreen Eu Kinase Activity Assay. The settings on record: pH 7.5; 25 °C. How it is done: (§1) The effects of compounds on the kinases DDR1 and DDR2 were assessed by using a LanthaScreen Eu kinase activity assay technology (Invitrogen, Carlsbad, CA, USA). […] Reaction buffer for the kinase reaction consists of 50 mm HEPES pH 7.5, 0.01% BRIJ-35, 10 mm MgCl2, and 1 mm EGTA. The concentration of fluorescein-polyGAT substrate (Invitrogen) in the assay was […] reactions were initiated with the addition of […] in the presence of serial dilutions of compounds. The reactions were allowed to proceed for 1 hour at room temperature before a 10 μL preparation of EDTA (20 mm) and Eu-labeled antibody (4 nm) in TR-FRET dilution buffer was added. The final concentration of antibody in the assay well was 2 nm, and the final concentration of EDTA was 10 mm.
A general note: In TR-FRET formats the signal depends on donor and acceptor labels being close together.

Test [2] has as its target Epithelial discoidin domain-containing receptor 1 (Homo sapiens, UniProt Q08345). Put plainly: LanthaScreen Eu Kinase Activity Assay. As to conditions: pH 7.5; 25 °C. How it is done:
as §1

Chain of Epithelial discoidin domain-containing receptor 1 (Q08345 whole entry, the tested form may be a part): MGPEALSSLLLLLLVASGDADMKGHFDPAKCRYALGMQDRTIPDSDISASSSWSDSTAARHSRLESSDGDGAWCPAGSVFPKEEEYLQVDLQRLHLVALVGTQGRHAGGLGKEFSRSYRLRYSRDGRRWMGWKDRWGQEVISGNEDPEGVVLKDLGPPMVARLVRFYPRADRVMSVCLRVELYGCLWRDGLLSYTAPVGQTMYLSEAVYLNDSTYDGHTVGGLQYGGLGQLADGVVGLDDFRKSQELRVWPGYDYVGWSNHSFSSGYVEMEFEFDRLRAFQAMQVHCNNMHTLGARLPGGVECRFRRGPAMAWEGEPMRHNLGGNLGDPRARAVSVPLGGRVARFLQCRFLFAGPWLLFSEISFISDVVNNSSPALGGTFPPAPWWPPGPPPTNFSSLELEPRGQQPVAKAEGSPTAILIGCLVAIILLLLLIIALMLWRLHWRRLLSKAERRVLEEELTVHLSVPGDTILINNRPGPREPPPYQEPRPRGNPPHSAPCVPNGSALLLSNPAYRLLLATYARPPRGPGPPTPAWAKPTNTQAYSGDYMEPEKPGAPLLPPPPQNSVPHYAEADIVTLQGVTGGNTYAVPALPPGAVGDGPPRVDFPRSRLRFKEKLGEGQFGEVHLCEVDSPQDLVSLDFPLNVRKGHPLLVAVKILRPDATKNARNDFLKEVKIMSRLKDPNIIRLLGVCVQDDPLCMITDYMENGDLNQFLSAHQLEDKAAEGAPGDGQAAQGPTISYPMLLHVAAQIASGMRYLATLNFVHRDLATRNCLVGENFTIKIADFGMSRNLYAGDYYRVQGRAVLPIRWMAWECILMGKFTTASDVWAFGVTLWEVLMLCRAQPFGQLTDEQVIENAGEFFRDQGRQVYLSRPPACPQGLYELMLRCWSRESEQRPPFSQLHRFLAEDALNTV

As a reminder, the IC50 is the concentration that gives 50% inhibition. Lower therefore signals greater potency. As to `C=CC(=O)N1CCN(c2cc(Nc3ncc(C(=O)Nc4c(C)cccc4Cl)s3)nc(C)n2)CC1` [2-((6-(4-Acryloylpiperazin-1-yl)-2-methylpyrimidin-4-yl)amino)-N-(2-chloro-6-methylphenyl)-thiazole-5-carboxamide (3l)], the results for the IC50 in test [1] and in test [2] were 6.29 nM and 4.54 nM, respectively.

Turning to `C=CC(=O)N1CCC(Nc2cc(Nc3ncc(C(=O)Nc4c(C)cccc4Cl)s3)nc(C)n2)C1` (centres undefined) [2-((6-((1-Acryloylpyrrolidin-3-yl)amino)-2-methylpyrimidin-4-yl)amino)-N-(2-chloro-6-methylphenyl)thiazole-5-carboxamide (5k)], the IC50 in test [1] amounted to 34.4 nM; in test [2] it was 7.31 nM.

With `Cc1nc(Nc2ncc(C(=O)Nc3c(C)cccc3Cl)s2)cc(N2CCN(C(=O)OCCN(C)C)CC2)n1` [2-(Dimethylamino)ethyl 4-(6-((5-((2-chloro-6-methylphenyl)carbamoyl)thiazol-2-yl)amino)-2-methylpyrimidin-4-yl)-piperazine-1-carboxylate (3k)], the results for the half-inhibitory concentration (IC50) in test [1] and in test [2] were 7.89 nM and 2.56 nM, respectively.

With `Cc1nc(Nc2ncc(C(=O)Nc3c(C)cccc3Cl)s2)cc(N2CCN(C(=O)OCCCl)CC2)n1` [2-Chloroethyl 4-(6-((5-((2-chloro-6-methylphenyl)carbamoyl)thiazol-2-yl)amino)-2-methylpyrimidin-4-yl)-piperazine-1-carboxylate (3i)], the values for the half-maximal inhibitory concentration (IC50) in test [1] and in test [2] were 9 nM and 4.21 nM, respectively.

For the compound `Cc1nc(Nc2ncc(C(=O)Nc3c(C)cccc3Cl)s2)cc(N2CCN(C(=O)OCCN3CCOCC3)CC2)n1` [2-Morpholinoethyl 4-(6-((5-((2-chloro-6-methylphenyl)carbamoyl)thiazol-2-yl)amino)-2-methylpyrimidin-4-yl)-piperazine-1-carboxylate (3j)], the half-inhibitory concentration (IC50) in test [1] stood at 7.04 nM; in test [2], 2.26 nM.

As for `C/C=C/C(=O)N1CCN(c2cc(Nc3ncc(C(=O)Nc4c(C)cccc4Cl)s3)nc(C)n2)CC1` [(E)-2-((6-(4-(but-2-enoyl)piperazin-1-yl)-2-methylpyrimidin-4-yl)amino)-N-(2-chloro-6-methylphenyl)thiazole-5-carboxamide (3m)], the half-inhibitory concentration (IC50) was 8.34 nM in test [1] and 4.25 nM in test [2].

As for `C=CCOC(=O)N1CCC(c2cc(Nc3ncc(C(=O)Nc4c(C)cccc4Cl)s3)nc(C)n2)C1` (centres undefined) [Allyl 3-(6-((5-((2-chloro-6-methylphenyl)carbamoyl)thiazol-2-yl)amino)-2-methylpyrimidin-4-yl)pyrrolidine-1-carboxylate (5d)], the IC50 in test [1] amounted to 17 nM; in test [2] it was 13.3 nM.

On to `C=CCOC(=O)N1CCN(c2cc(Nc3ncc(C(=O)Nc4c(C)cccc4Cl)s3)nc(C)n2)CC1` [Allyl 4-(6-((5-((2-chloro-6-methylphenyl)carbamoyl)thiazol-2-yl)amino)-2-methylpyrimidin-4-yl)-piperazine-1-carboxylate (3d)], for which the IC50 came out at 21.6 nM in test [1] and 6.69 nM in test [2].

Take `Cc1nc(Nc2ncc(C(=O)Nc3c(C)cccc3Cl)s2)cc(C2CCN(C(=O)OCc3ccccc3)C2)n1` (centres undefined) [Benzyl 3-(6-((5-((2-chloro-6-methylphenyl)carbamoyl)thiazol-2-yl)amino)-2-methylpyrimidin-4-yl)pyrrolidine-1-carboxylate (5h)]: the results for the 50% inhibitory concentration (IC50) in test [1] and in test [2] were 285 nM and 22 nM, respectively.

`Cc1nc(Nc2ncc(C(=O)Nc3c(C)cccc3Cl)s2)cc(N2CCN(C(=O)OCc3ccccc3)CC2)n1` [Benzyl 4-(6-((5-((2-chloro-6-methylphenyl)carbamoyl)thiazol-2-yl)amino)-2-methylpyrimidin-4-yl)-piperazine-1-carboxylate (3h)]: the results for the half-inhibitory concentration (IC50) in test [1] and in test [2] were 133 nM and 22.6 nM, respectively.

On to `CCCCOC(=O)N1CCC(c2cc(Nc3ncc(C(=O)Nc4c(C)cccc4Cl)s3)nc(C)n2)C1` (centres undefined) [Butyl 3-(6-((5-((2-chloro-6-methylphenyl)carbamoyl)thiazol-2-yl)amino)-2-methylpyrimidin-4-yl)pyrrolidine-1-carboxylate (5e)], for which the figures for the IC50 in test [1] and in test [2] were 123 nM and 15.3 nM, respectively.

In the case of `CCCCOC(=O)N1CCN(c2cc(Nc3ncc(C(=O)Nc4c(C)cccc4Cl)s3)nc(C)n2)CC1` [Butyl 4-(6-((5-((2-chloro-6-methylphenyl)carbamoyl)thiazol-2-yl)amino)-2-methylpyrimidin-4-yl)-piperazine-1-carboxylate (3e)], the figures for the IC50 in test [1] and in test [2] were 6.16 nM and 3.2 nM, respectively.

Take `CCOC(=O)N1CCC(c2cc(Nc3ncc(C(=O)Nc4c(C)cccc4Cl)s3)nc(C)n2)C1` (centres undefined) [Ethyl 3-(6-((5-((2-chloro-6-methylphenyl)carbamoyl)thiazol-2-yl)amino)-2-methylpyrimidin-4-yl)pyrrolidine-1-carboxylate (5b)]: the IC50 was determined as 22.4 nM in test [1] and 9.6 nM in test [2].

Turning to `CCOC(=O)N1CCN(c2cc(Nc3ncc(C(=O)Nc4c(C)cccc4Cl)s3)nc(C)n2)CC1` [Ethyl 4-(6-((5-((2-chloro-6-methylphenyl)carbamoyl)thiazol-2-yl)amino)-2-methylpyrimidin-4-yl)-piperazine-1-carboxylate (3b)], the IC50 in test [1] was 11.4 nM; in test [2], 3.15 nM.

With `Cc1nc(Nc2ncc(C(=O)Nc3c(C)cccc3Cl)s2)cc(C2CCN(C(=O)OCC(C)C)C2)n1` (centres undefined) [Isobutyl 3-(6-((5-((2-chloro-6-methylphenyl)carbamoyl)thiazol-2-yl)amino)-2-methylpyrimidin-4-yl)pyrrolidine-1-carboxylate (5f)], the IC50 in test [1] worked out at 85.4 nM; in test [2] it was 12.1 nM.

Regarding `Cc1nc(Nc2ncc(C(=O)Nc3c(C)cccc3Cl)s2)cc(N2CCN(C(=O)OCC(C)C)CC2)n1` [Isobutyl 4-(6-((5-((2-chloro-6-methylphenyl)carbamoyl)thiazol-2-yl)amino)-2-methylpyrimidin-4-yl)-piperazine-1-carboxylate (3f)], the IC50 in test [1] is 34.6 nM; in test [2], 6.75 nM.

On to `Cc1nc(Nc2ncc(C(=O)Nc3c(C)cccc3Cl)s2)cc(C2CCN(C(=O)OC(C)C)C2)n1` (centres undefined) [Isopropyl 3-(6-((5-((2-chloro-6-methylphenyl)carbamoyl)thiazol-2-yl)amino)-2-methylpyrimidin-4-yl)pyrrolidine-1-carboxylate (5c)], for which the half-maximal inhibitory concentration (IC50) in test [1] came out at 72.1 nM; in test [2], 9.14 nM.

Consider `Cc1nc(Nc2ncc(C(=O)Nc3c(C)cccc3Cl)s2)cc(N2CCN(C(=O)OC(C)C)CC2)n1` [Isopropyl 4-(6-((5-((2-chloro-6-methylphenyl)carbamoyl)thiazol-2-yl)amino)-2-methylpyrimidin-4-yl)-piperazine-1-carboxylate (3c)], for which the IC50 in test [1] came to 14 nM; in test [2] it was 5.99 nM.

`COC(=O)N1CCC(c2cc(Nc3ncc(C(=O)Nc4c(C)cccc4Cl)s3)nc(C)n2)C1` (centres undefined) [Methyl 3-(6-((5-((2-chloro-6-methylphenyl)carbamoyl)thiazol-2-yl)amino)-2-methylpyrimidin-4-yl)pyrrolidine-1-carboxylate (5a)]: the IC50 is 32.9 nM in test [1] and 5.23 nM in test [2].

As to `COC(=O)N1CCN(c2cc(Nc3ncc(C(=O)Nc4c(C)cccc4Cl)s3)nc(C)n2)CC1` [Methyl 4-(6-((5-((2-chloro-6-methylphenyl)carbamoyl)thiazol-2-yl)amino)-2-methylpyrimidin-4-yl)-piperazine-1-carboxylate (3a)], the half-maximal inhibitory concentration (IC50) in test [1] was found to be 6.76 nM; in test [2], 4.32 nM.

As for `Cc1nc(Nc2ncc(C(=O)Nc3c(C)cccc3Cl)s2)cc(NC2CCN(S(C)(=O)=O)C2)n1` (centres undefined) [N-(2-chloro-6-methylphenyl)-2-((2-methyl-6-((1-(methylsulfonyl)pyrrolidin-3-yl)amino)-pyrimidin-4-yl)amino)thiazole-5-carboxamide (5i)], the IC50 in test [1] stood at 38.3 nM; in test [2] it was 11.7 nM.

Turning to `CCC(=O)N1CCC(Nc2cc(Nc3ncc(C(=O)Nc4c(C)cccc4Cl)s3)nc(C)n2)C1` (centres undefined) [N-(2-chloro-6-methylphenyl)-2-((2-methyl-6-((1-propionylpyrrolidin-3-yl)amino)pyrimidin-4-yl)amino)thiazole-5-carboxamide (5l)], the IC50 in test [1] worked out at 23.9 nM; in test [2], 17.9 nM.
